Source: PubChem BioAssay AID434987 (Southern Research Specialized Biocontainment Screening …, 2010)
pIC50: −log10 of the molar value. Calls of active or inactive are those of the source. No rule for the calls is given here.

System: M. tuberculosis H37Rv growth inhibition with meropenem
Experiment: dose response, H37Rv, with and without meropenem (AID 434987);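 also: growth over 7 days at 37 °C before Alamar Blue read on day 9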
[1] = M. tuberculosis H37Rv growth inhibition, measured here: IC50 without meropenem
[2] = M. tuberculosis H37Rv growth inhibition, measured here: IC90 without meropenem
[3] = measured here: IC90 with meropenem

Row | Structure (SMILES) | IC50 | pIC50 [1] | IC90 [2] | IC90 [3] | pIC50
1 | COc1ccc2nc(SCC(=O)N3CCCCCC3)c(C#N)cc2c1 | > 50 µM (inactive) | < 4.00 | > 100 µM | > 50 µM | –
2 | Cc1ccc(C(=O)NN2C(=O)/C(=C/c3cccn3C)SC2=S)cc1 | > 100 µM (inactive) | < 4.00 | > 100 µM | > 100 µM | –
3 | COc1cccc(/C=N/Nc2nc(N3CCCC3)nc(N3CCCC3)n2)c1O | – | 4.60 | 63.7 µM | 36.1 µM | 5.09
4 | COc1cc(NC(=O)c2ccc(Cl)cc2)c(OC)cc1NC(=O)CN1CCOCC1 | > 100 µM (inactive) | < 4.00 | > 100 µM | > 100 µM | –
5 | COc1cccc(NS(=O)(=O)c2ccc3[nH]cc(C(=O)NCCC(C)C)c(=O)c3c2)c1 | > 100 µM (inactive) | < 4.00 | > 100 µM | > 100 µM | –
6 | COc1cc(OC)cc(-c2cc3ccc(OC)cc3cn2)c1 | 29 µM (inactive) | 4.41 | 85.8 µM | 76.9 µM | –
7 | CSc1ccccc1C(=O)Nc1cccc([N+](=O)[O-])c1C | > 100 µM (inactive) | < 4.00 | > 100 µM | > 100 µM | –
8 | CCOc1cc(/C=N\Nc2ccc([N+](=O)[O-])cc2)ccc1OCC(=O)Nc1ccc(C)c(C)c1 | – | < 4.00 | > 100 µM | > 12.5 µM | 5.22
9 | O=C(N[C@@H](Cc1ccccc1)C(=O)CCl)OCc1ccccc1 | 8.88 µM (inactive) | 4.76 | 41.9 µM | 46.9 µM | –
10 | O=C(CCSc1nnc(-c2ccncc2)o1)Nc1ccccc1Cl | > 100 µM (inactive) | < 4.00 | > 100 µM | > 100 µM | –
11 | CC12CCC(C/C1=N/NC(=O)Nc1ccccc1)C2(C)C (stereo not drawn) | – | < 4.00 | > 100 µM | > 50 µM | 4.83
12 | COc1ccc(C(=O)Nc2ccccc2C(=O)NC(C(=O)NCc2ccco2)C(C)C)cc1 (stereo not drawn) | > 100 µM (inactive) | < 4.00 | > 100 µM | > 100 µM | –
13 | COc1ccc(/C=C/C(=O)NCC(=O)N/N=C/c2cc(Br)ccc2OCc2ccccc2)cc1 | > 100 µM (inactive) | < 4.00 | > 100 µM | > 100 µM | –
14 | CC(C)Oc1ccc(N2CC(C(=O)Nc3ccccc3F)CC2=O)cc1 (stereo not drawn) | 56.8 µM (inactive) | < 4.00 | > 100 µM | > 100 µM | –
15 | COc1ccc(-c2cc(=Nc3ccc(C)cc3)c3ccccc3o2)cc1 | 78.3 µM (inactive) | < 4.00 | > 100 µM | 98.3 µM | –
16 | O=c1oc(-c2cccs2)nc2sc3c(c12)CCCC3 | – | < 4.00 | > 100 µM | 29.7 µM | 4.65
17 | CC(OC(=O)c1ccc([N+](=O)[O-])o1)C(=O)NC1CCCCC1C (stereo not drawn) | 15.6 µM (inactive) | 4.58 | 70.6 µM | > 100 µM | –
18 | O=C(CSc1nnc(SCc2ccc(Cl)cc2)s1)c1ccc2c(c1)OCO2 | > 100 µM (inactive) | < 4.00 | > 100 µM | > 100 µM | –
19 | COCCNC(=O)c1ccc(NC(=O)C2(c3ccccc3)CCCC2)cc1 | – | 4.48 | > 100 µM | > 100 µM | 5.09

Row | Structure (SMILES) | IC50 | pIC50 [1] | IC90 [2] | IC90 [3] | pIC50
20 | Cc1nnnn1/C(=C\c1ccccc1)C(=O)OCC(=O)Nc1ccc(Cl)cc1F | 17 µM (inactive) | 4.57 | 35.8 µM | 25.5 µM | –
21 | O=C(NNC1=C(C(=O)C(F)(F)F)CCC1)c1cccc(O)c1 | 68 µM (inactive) | < 4.00 | > 100 µM | > 100 µM | –
22 | COc1cc(OC)cc(-c2nnc(NC(=O)CCS(=O)(=O)c3ccc(C)cc3)o2)c1 | – | < 4.00 | > 100 µM | > 100 µM | 4.49
23 | Cc1cc(C(=O)Nc2ccc(Br)cc2F)n(-c2ccccc2)n1 | > 100 µM (inactive) | < 4.00 | > 100 µM | > 100 µM | –
24 | Cc1cccc(C)c1NC(=O)C1CC2CCC1C2 (stereo not drawn) | > 100 µM (inactive) | < 4.00 | > 100 µM | > 100 µM | –
25 | CCc1ccc2c(c1)C(c1ccc([N+](=O)[O-])cc1)=NNC(c1ccc(C)cc1)=N2 | > 100 µM (inactive) | < 4.00 | > 100 µM | > 100 µM | –
26 | Cc1ccc(C)c(NC(=O)C2Cc3ccccc3CN2C(=O)OCc2ccccc2)c1 (stereo not drawn) | 71.3 µM (inactive) | 4.04 | > 100 µM | > 100 µM | –
27 | O=C(Cn1cnc2sc3c(c2c1=O)CCCC3)NCC(=O)Nc1ccccc1F | 88.3 µM (inactive) | < 4.00 | > 100 µM | 95.5 µM | –
28 | Cc1ccc(NC(=O)CCS(=O)(=O)c2cccc3nonc23)cc1 | 16.8 µM (inactive) | 4.51 | > 100 µM | > 100 µM | –
29 | Cc1ccc(C)c(NC(=O)c2cc(-c3cccnc3)nc3ccccc23)c1 | > 100 µM (inactive) | < 4.00 | > 100 µM | > 100 µM | –
30 | Nc1ncnc2c1c(-c1ccc(Oc3ccccc3)cc1)cn2C1CCCC1 | 17.1 µM (inactive) | 4.58 | 42.5 µM | 60.3 µM | –
31 | CC(C)CC(=O)NC(=S)Nc1ccc(N2CCN(C(=O)c3cccs3)CC2)cc1 | > 100 µM (inactive) | < 4.00 | > 100 µM | > 100 µM | –
32 | BrC(=C\c1ccccc1)/C=N/N1CCN(c2ccccn2)CC1 | > 100 µM (inactive) | < 4.00 | > 100 µM | > 100 µM | –
33 | Cc1c(C(=O)NC(=S)Nc2ccccc2N2CCCC2)cccc1[N+](=O)[O-] | 63.5 µM (inactive) | 4.08 | > 100 µM | > 100 µM | –
34 | O=c1c2ccccc2c(-c2ccccc2)nn1-c1ccccc1 | – | < 4.00 | > 100 µM | > 100 µM | 4.71
35 | Cc1c(C(=O)NCCC2=CCCCC2)sc2ncnc(N3CCCCC3C)c12 (stereo not drawn) | 47.5 µM (inactive) | 4.18 | > 100 µM | 52 µM | –
36 | Cn1c(=S)[nH]c2sc3c(c2c1=O)CCC(C(C)(C)C)C3 (stereo not drawn) | 38 µM (inactive) | 4.10 | > 100 µM | > 100 µM | –
37 | Cc1ccc(C(C)C)c(OCc2ccc(C(=O)N/N=C/c3ccc(C(=O)O)cc3)cc2)c1 | – | 4.36 | 84.9 µM | 49.5 µM | 4.87
38 | CCOC(=O)c1c(C)n(-c2ccccc2)c2ccc(OCCN(C)C)cc12 | – | 4.21 | > 100 µM | 21.7 µM | 5.26

Row | Structure (SMILES) | IC50 | pIC50 [1] | IC90 [2] | IC90 [3] | pIC50
39 | COc1cc(OC)c(C(=O)Nc2cccc3ccccc23)cc1OC | > 100 µM (inactive) | < 4.00 | > 100 µM | > 100 µM | –
40 | Cc1ccc(NC(=O)C2(c3ccccc3)CC2(Cl)Cl)cc1C (stereo not drawn) | > 100 µM (inactive) | < 4.00 | > 100 µM | > 100 µM | –
41 | CCCc1cc(NC(=O)COC(=O)c2nccnc2N)n(-c2ccccc2)n1 | 49.3 µM (inactive) | 4.16 | > 100 µM | 50.8 µM | –
42 | O=C(NN=C(Cc1ccccc1)Cc1ccccc1)c1ccccc1F | – | < 4.00 | > 100 µM | > 50 µM | 5.78
43 | Brc1ccc(CNc2ccc3ncccc3c2)cc1 | > 100 µM (inactive) | < 4.00 | > 100 µM | > 100 µM | –
44 | CCOc1cc(/C=N\NC(=O)c2ccc(NC(=O)C(C)(C)C)cc2)ccc1OC(=O)c1ccc(C)cc1 | > 100 µM (inactive) | < 4.00 | > 100 µM | > 100 µM | –
45 | O=C(N/N=C\c1cn[nH]c1-c1ccc(Cl)cc1)c1cccs1 | > 100 µM (inactive) | < 4.00 | > 100 µM | > 100 µM | –
46 | Nc1c(C(=O)NC2CC2)c2nc3ccccc3nc2n1-c1ccc2c(c1)OCO2 | 95 µM (inactive) | 4.05 | > 100 µM | > 100 µM | –
47 | CC1=NN(c2ccccc2)C(=O)C1C=Nc1ccccc1O (stereo not drawn) | > 100 µM (inactive) | < 4.00 | > 100 µM | > 100 µM | –
48 | COc1ccc(CCNCc2csc3nc4ccccc4n23)cc1OC | 50 µM (inactive) | 4.03 | > 100 µM | > 100 µM | –
49 | COc1cc(NC(=O)c2ccccc2Cl)ccc1NC(=O)c1ccco1 | 19.6 µM (inactive) | 4.48 | > 50 µM | > 25 µM | –
50 | Cc1cc(=S)nc(-c2ccccn2)[nH]1 | – | 4.32 | 50.4 µM | 19.7 µM | 4.88
51 | Cc1ccc(C(=O)N/C(=C\c2ccc(-c3ccc(Cl)cc3)o2)C(=O)NCCCN(C)C)cc1 | 22.4 µM (inactive) | 4.60 | 28.3 µM | 23.7 µM | –
52 | COc1ccnc(CS(=O)c2nc3cc(OC(F)F)ccc3[nH]2)c1OC (stereo not drawn) | > 100 µM (inactive) | < 4.00 | > 100 µM | > 100 µM | –
53 | CCN(CC)C(=O)Cn1cc(C(=O)C(=O)N2CCN(c3ccccc3)CC2)c2ccccc21 | > 100 µM (inactive) | < 4.00 | > 100 µM | > 100 µM | –
54 | CCOC(=O)N1CCN(C(=O)CSc2nnc(-c3ccccc3OC)o2)CC1 | – | 4.52 | 62.6 µM | > 100 µM | 5.18
55 | COC(=O)c1ccc(-c2cc(C(=O)O)c3cc4c(cc3n2)OCCO4)cc1 | > 100 µM (inactive) | < 4.00 | > 100 µM | > 100 µM | –
56 | CN(Cc1ccccc1)C(=S)NC(=O)c1ccc(-c2ccccc2)cc1 | – | 4.62 | > 100 µM | > 100 µM | 5.14
57 | COc1cc(NC(=O)c2ccccc2)c(OC)cc1NC(=O)CN1CCOCC1 | 14.5 µM (inactive) | 4.49 | > 100 µM | 69.2 µM | –
